In brackets after ≈: the same amount, converted by molar mass. Like-named read-outs stand apart in the source and are kept apart here.
Key:
[1] = biological target: interaction between GST-MAGEA11 MHD and FAM-PCF11_4 peptide (MAGE-A11:PCF11) (Homo sapiens (Human), UniProt P43364); assay: TR-FRET dose response competition assay for disruption of MAGE-A11:PCF11 binding
How it was run: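 Competition TR-FRET at room temperature in 50 mM Tris pH 7.5, 20 mM MgCl2, 0.1 mg/ml BSA, 1 mM DTT: final 5 nM GST-MAGEA11 MHD, 5 nM Tb-anti-GST, 200 nM FAM-PCF11_4, 90 min. Ratio 520/490 nm converted to % inhibition; IC50 from sigmoidal fit.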

[2] = High throughput Caco-2 permeability; format: in vitro ADME; settings: human, 10 μmol/l, 2 h, 37° C.
Experimental: High throughput Caco-2 permeability was performed in the TranswellR 0.4 μm polycarbonate membrane 96-well system with modified methods. Caco-2 cells were maintained at 37° C. in a humidified incubator with an atmosphere of 5% CO2. The cells were cultured in 75 cm^2 flasks with Dulbecco's Modified Eagle's Medium (DMEM) containing 10% (v/v) FBS, 1% (v/v) non-essential amino acids (NEAA), 100 units/ml of penicillin, and 100 μg/ml of streptomycin. The Caco-2 cells were seeded onto inserts at a density of 2×10^4 cells/insert separately. The medium in the wells was exchanged each other day, and the trans epithelial electrical resistance (TEER) value was measured using an epithelial voltohm meter (Millipore, Billerica, Massachusetts). […] For transport experiments, each cultured monolayer on the 96-well plate was washed twice with a transport buffer (HBSS containing 25 mM HEPES, pH 7.4). The permeability assay was initiated by the addition of each compound solution (10 μmol/l) into inserts (apical side, A) or receivers (basolateral side, B). The Caco-2 cell monolayers were incubated for 2 h at 37° C. Fractions were collected from receivers (if apical to basal permeability) or inserts (if basal to apical permeability), and concentrations were assessed by UPLC/MS (Waters; Milford, MA). All compounds were tested in triplicates. The A→B (or B→A) apparent permeability coefficients (Papp) of each compound were calculated using the equation, Papp=dQ/dt×1/AC0, where dQ/dt equals the flux of a drug across the monolayer, A equals the total insert well surface area, and C0 is the initial concentration of substrate in the donor compartment. The efflux ratio was determined by dividing the Papp in the B-A direction by the Papp in the A-B direction.

[3] = Solubility assay (μSOL Evolution, UV); format: physicochemical; settings: 18 h at RT in buffer; for solubility at 18 h: aqueous buffer, kinetic from dmso stock
Experimental: Solubility assays were carried out on a Biomek FX lab automation workstation (Beckman Coulter, Inc., Fullerton, CA) using SOL Evolution software (pION Inc., Woburn, MA). The detailed method is described as follows. 10 μl of 10 mM compound stock (in DMSO) was added to 190 μl 1-propanol to make a reference stock plate. 5 μl from this reference stock plate were mixed with 70 μl 1-propanol and 75 μl citrate phosphate-buffered saline (PBS; isotonic) to make the reference plate, and the UV spectrum (250-500 nm) of the reference plate was read. 6 μl of 10 mM test compound stock was added to 594 μl buffer in a 96-well storage plate and mixed. The storage plate was sealed and incubated at RT for 18 h. The suspension was then filtered through a 96-well filter plate (pION Inc., Woburn, MA). 75 μl of filtrate was mixed with 75 μl 1-propanol to make the sample plate, and the UV spectrum of the sample plate was read. Calculations were carried out with μSOL Evolution software based on the area under the curve (AUC) of the UV spectrum of the sample and reference plates. All compounds were tested in triplicate.

[4] = biological target: MAGE-A11:PCF11 (Homo sapiens (Human), UniProt P43364); assay: TR-FRET single point screening at 15 μM; format: binding; parameters: unit not given here; settings: single point TR-FRET screening at 15 μM against MAGE-A11:PCF11
How it was run: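 Competition TR-FRET: compounds at final 15 μM mixed with 200 nM FAM-PCF11_4, 5 nM GST-MAGEA11 and 5 nM Tb-anti-GST in Tris pH 7.5/MgCl2/BSA/DTT buffer, room temperature, 90 min. Emission ratio 520/490 nm (340 nm excitation) expressed as % inhibition relative to positive and negative controls.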

[5] = Table 6, 4-aminoquinoline compounds, read-out: TR-FRET, IC50
[6] = Caco-2, pH 7.4, apical to basolateral, read-out: Caco-2 permeability, A/B
[7] = Caco-2, pH 7.4, basolateral to apical, read-out: Caco-2 permeability, B/A
[8] = Table 8, representative compounds, read-out: TR-FRET IC50
[9] = Dose response TR-FRET screening of nine scaffold groups against MAGE-A11:PCF11, read-out: consensus IC50
[10] = Table 5, dose response TR-FRET screening of 59 quinoline compounds against MAGE-A11:PCF11, read-out: TR-FRET IC50

Sequence of interaction between GST-MAGEA11 MHD and FAM-PCF11_4 peptide (MAGE-A11:PCF11) (P43364 218-429): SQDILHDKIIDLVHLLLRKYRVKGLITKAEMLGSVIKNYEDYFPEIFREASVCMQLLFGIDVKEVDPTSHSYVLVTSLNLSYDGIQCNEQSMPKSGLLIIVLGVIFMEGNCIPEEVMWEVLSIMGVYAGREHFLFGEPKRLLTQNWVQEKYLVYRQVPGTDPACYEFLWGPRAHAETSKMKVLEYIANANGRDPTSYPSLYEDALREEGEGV
Sequence of MAGE-A11:PCF11 (P43364 218-429): as above

Structure (SMILES): FC(F)(F)c1cc(-c2ccc3c(NCCCNCc4ccc5[nH]ccc5c4)ccnc3c2)cc(C(F)(F)F)c1 [SJ001008069-01, N^1_((1H-Indol-5-yl)methyl)-N^3-(7-(3,5-bis(trifluoromethyl)phenyl)quinolin-4-yl)propane-1,3-diamine]
- IC50 [1, 5]: 0.2 µM
- Papp at 2 h, 10 μmol/l [2, 6]: 0.498 ×10⁻⁶ cm/s
- Papp at 2 h, 10 μmol/l [2, 7]: 0.229 ×10⁻⁶ cm/s
- solubility at 18 h [3]: 0.12 µM (≈ 0.0651 µg/mL)

Structure (SMILES): Brc1ccc2c(NCCCNCc3ccc4[nH]ccc4c3)ccnc2c1 [SJ001008065-01, N^1-((1H-Indol-5-yl)methyl)-N^3-(7-bromoquinolin-4-yl)propane-1,3-diamine]
- IC50 [1, 5]: 0.62 µM
- Papp at 2 h, 10 μmol/l [2, 6]: 18.3 ×10⁻⁶ cm/s
- Papp at 2 h, 10 μmol/l [2, 7]: 19.3 ×10⁻⁶ cm/s
- solubility at 18 h [3]: 57.1 µM (≈ 23.4 µg/mL)

Structure (SMILES): Cn1ccc2cc(CNCCCNc3ccnc4cc(C(F)(F)F)ccc34)ccc21 [SJ001008067-01, N^1-((1-Methyl-1H-indol-5-yl)methyl)-N^3-(7-(trifluoromethyl)quinolin-4-yl)propane-1,3-diamine]
- IC50 [1, 5]: 1.16 µM
- Papp at 2 h, 10 μmol/l [2, 6]: 21.4 ×10⁻⁶ cm/s
- Papp at 2 h, 10 μmol/l [2, 7]: 12.3 ×10⁻⁶ cm/s
- solubility at 18 h [3]: 19.4 µM (≈ 8 µg/mL)

Structure (SMILES): FC(F)(F)c1cc(-c2ccc3c(NCCCNCc4ccco4)ccnc3c2)cc(C(F)(F)F)c1 [SJ000311270-01]
- IC50 [1, 5]: 0.58 µM
- Papp at 2 h, 10 μmol/l [2, 6]: 0.326 ×10⁻⁶ cm/s
- Papp at 2 h, 10 μmol/l [2, 7]: 0.079 ×10⁻⁶ cm/s
- Solubility [3]: 61.08 µM (≈ 30.1 µg/mL)

Structure (SMILES): CCCN(CCCCNc1ccnc2cc(Cl)ccc12)Cc1cc(Br)ccc1O [SJ000311196]
- TR-FRET signal [4]: 5.724
- IC50 [1, 8]: 69.9 µM

Structure (SMILES): C=CC(=O)N(CCCNc1ccnc2ccccc12)Cc1ccc2[nH]ccc2c1 [SJ001009807-01, N-((1H-Indol-5-yl)methyl)-N-(3-(quinolin-4-ylamino)propyl)acrylamide]
- IC50 [1, 5]: 3.5 µM
- Papp at 2 h, 10 μmol/l [2, 6]: 2.73 ×10⁻⁶ cm/s
- Papp at 2 h, 10 μmol/l [2, 7]: 18.9 ×10⁻⁶ cm/s
- solubility at 18 h [3]: 34.8 µM (≈ 13.4 µg/mL)

Structure (SMILES): FC(F)(F)c1ccc2c(NCCCNCc3ccco3)ccnc2c1 [SJ000361113-02, N^1-(Furan-2-ylmethyl)-N^3-(7-(trifluoromethyl)quinolin-4-yl)propane-1,3-diamine]
- IC50 [1, 5]: > 70 µM
- Papp at 2 h, 10 μmol/l [2, 6]: 50.2 ×10⁻⁶ cm/s
- Papp at 2 h, 10 μmol/l [2, 7]: 40.1 ×10⁻⁶ cm/s
- solubility at 18 h [3]: 119 µM (≈ 41.6 µg/mL)

Structure (SMILES): CCCn1c(-c2ccc(SC)cc2)nc2c1c(=O)[nH]c(=O)n2Cc1ccccc1 [SJ000381119-1]
- IC50 [1, 9]: 69.9 µM

Structure (SMILES): FC(F)(F)c1ccc2c(NCCCNCc3c4ccccc4cc4ccccc34)ccnc2c1 [SJ000361126-1]
- IC50 [1, 9]: 69.9 µM

Structure (SMILES): FC(F)(F)Oc1ccc(CN(CCCCNc2ccnc3cc(Cl)ccc23)Cc2ccccc2)cc1 [SJ000520451-1]
- IC50 [1, 10]: > 70 µM

Structure (SMILES): COc1ccc(F)cc1CNCCCNc1ccnc2cc(-c3ccc(C(F)(F)F)cc3)ccc12 [SJ000311281-01]
- IC50 [1, 5]: 5.58 µM
- IC50 [1, 8]: 13.4 µM
- IC50 ([1]; read-out: IC50 by TR-FRET for disrupting MAGE-A11:PCF11 interaction): 5.58 µM

Structure (SMILES): O=C1C(Cl)=C(Nc2cccc(C(F)(F)F)c2)C(=O)c2ccccc21 [SJ000024924-2]
- IC50 [1, 9]: 69.9 µM

Structure (SMILES): CC(NC1=C(Cl)C(=O)c2ccccc2C1=O)C(=O)O (centres unmarked) [SJ000244608-1]
- IC50 [1, 9]: 69.9 µM

Structure (SMILES): CCc1ccc(CNCCCNc2ccnc3cc(Cl)ccc23)cc1 [SJ000521039-1]
- IC50 [1, 9]: 69.9 µM

Structure (SMILES): N#Cc1cccc(CNCCCNc2ccnc3cc(Cl)ccc23)c1 [SJ000523063-1]
- IC50 [1, 9]: 69.9 µM

Structure (SMILES): Cc1ccc(C)c(Nc2nc(N)c3ccccc3n2)c1 [SJ000192944-1]
- IC50 [1, 9]: 69.9 µM

Structure (SMILES): COc1ccc(O)c(C(C)NCCCNc2ccnc3cc(Cl)ccc23)c1 (centres unmarked) [SJ000311188-1]
- IC50 [1, 9]: 69.9 µM

Structure (SMILES): COC(=O)CCCCCNCCCNc1ccnc2cc(Cl)ccc12 [SJ000521021-1]
- IC50 [1, 10]: 31.4 µM

Structure (SMILES): COc1ccc(C2Nc3ccccc3C(=O)N2Cc2ccccc2)cc1CSc1ccccn1 (centres unmarked) [SJ000111312-2]
- IC50 [1, 9]: 69.9 µM

Structure (SMILES): CCCCn1c(=O)[nH]c(=O)c2c1nc(-c1ccc(OCC(C)C)c(OCC)c1)n2CC [SJ000378903-1]
- IC50 [1, 9]: 69.9 µM

Structure (SMILES): CCCCn1c(=O)[nH]c(=O)c2c1nc(-c1ccc(OC(F)(F)C(F)C(F)(F)F)cc1)n2O (centres unmarked) [SJ000378966-1]
- IC50 [1, 9]: 69.9 µM

Structure (SMILES): CC(C)(C)c1ccc(Oc2ccc3c(NCCCNCc4cccc5c4OCO5)ccnc3c2)cc1 [SJ000311236]
- IC50 [1, 8]: 8.67 µM

Structure (SMILES): CN(C)c1ccc(CNCCCNc2ccnc3cc(Cl)ccc23)c2ccccc12 [SJ000523054-1]
- IC50 [1, 9]: 69.9 µM

Structure (SMILES): COc1ccc(C2Nc3ccccc3C(=O)N2Cc2ccccc2)cc1Cn1nc(C)c([N+](=O)[O-])c1C (centres unmarked) [SJ000288419-1]
- IC50 [1, 9]: 69.9 µM

Structure (SMILES): COc1cccc(CNCCCNc2ccnc3cc(-c4cc(C(F)(F)F)cc(C(F)(F)F)c4)ccc23)c1O [SJ000311271-1]
- IC50 [1, 9]: 69.9 µM

Structure (SMILES): COc1ccc(-c2ccc3c(NCCCNCc4cc(F)ccc4OC)ccnc3c2)cc1 [SJ000311297]
- IC50 [1, 8]: 69.9 µM

Structure (SMILES): O=C(Cn1cnc2cc(-c3ccccc3)sc2c1=O)NCc1ccccc1Cl [SJ000455850-1]
- IC50 [1, 9]: 69.9 µM

Structure (SMILES): Fc1cccc(CNCCCNc2ccnc3cc(C(F)(F)F)ccc23)c1 [SJ000521066]
- IC50 [1, 8]: 69.9 µM

Structure (SMILES): COc1ccc(O)c(C(C)NCCCNC2C=CN=C3C=C(Cl)C=CC32)c1 (centres unmarked) [SJ000311188]
- IC50 [1, 8]: 69.9 µM

Structure (SMILES): COc1ccc(F)cc1CNCCCNc1ccnc2cc(Oc3ccccc3OC)ccc12 [SJ000311213]
- IC50 [1, 8]: 69.9 µM

Structure (SMILES): CCn1c2ccccc2c2cc(CN3CCc4nnc(CNS(=O)(=O)C(C)C)n4CC3)ccc21 [SJ000307753-1]
- IC50 [1, 9]: 69.9 µM

Structure (SMILES): CC(C)(C)c1ccc(C2=C(c3ccc([N+](=O)[O-])cc3)C(=O)OC2)cc1 [SJ000368097-1]
- IC50 [1, 9]: 69.9 µM

Structure (SMILES): CCCCOC(=O)Cn1cnc2cc(-c3ccc(OC)cc3)sc2c1=O [SJ000399852-1]
- IC50 [1, 9]: 69.9 µM

Structure (SMILES): Cc1cccc(NC2=C(N)C(=O)c3ccccc3C2=O)c1 [SJ000024934-1]
- IC50 [1, 9]: 69.9 µM

Structure (SMILES): Clc1ccc(Oc2ccc3c(NCCCNCc4cccc5c4OCO5)ccnc3c2)cc1 [SJ000311228]
- IC50 [1, 8]: 17.7 µM

Structure (SMILES): COc1ccc(OC)c2c(O)c(CN3CCCCC3C)c(C)nc12 (centres unmarked) [SJ000280708]
- IC50 [1, 8]: > 69.9 µM

Structure (SMILES): COc1ccc(F)cc1CNCCCNc1ccnc2cc(Cc3ccc(C#N)cc3)ccc12 [SJ000311305-1]
- IC50 [1, 9]: 69.9 µM

Structure (SMILES): COc1ccc(C(F)(F)F)cc1CNCCCNc1ccnc2cc(C(F)(F)F)ccc12 [SJ000521064]
- IC50 [1, 8]: 69.1 µM

Reference: patent publication US20240246941A1, “SUBSTITUTED 4-(3-AMINOPROP-1-YL)AMINOQUINOLINE ANALOGS AS MODULATORS OF MELANOMA-ASSOCIATED ANTIGEN 11 UBIQUITIN LIGASE” (ST. JUDE CHILDREN'S RESEARCH HOSPITAL, INC., priority 2020, published 2024)
